According to patent US7989445B2, “Thienopyrimidone compound” (Takeda Pharmaceutical Company Limited, priority 2005, dated 2011):
Counter-ions that a name gives are not always drawn.

Key:
[1] = biological target: T1, SLC-1 expression CHO cell membrane fraction (MCH receptor) (Homo sapiens, UniProt Q99705); experiment: Antagonistic activity of test compound using GTPγS binding assay; assay type: biochemical, human/rat; details: [35S]-GTPγS binding stimulated by MCH, 25° C., 1 hr, read-out: inhibitory activity (IC50: nM)
T1 construct: expressed in transfected cells; host or cells: CHO cells (human SLC-1 clone 57 / rat SLC-1 clone 44), membrane fraction
Method: Determination of Antagonistic Activity of Test Compound using GTPγS Binding Assay
Using human SLC-1 expression CHO cell clone 57 and rat SLC-1 expression CHO cell clone 44 described in WO01/82925, SLC-1 expression CHO cell membrane fractions were prepared by the following method. In phosphate buffered saline (pH 7.4) supplemented with 5 mM EDTA (ethylenediaminetetraacetic acid) were suspended human and rat SLC-1 expression CHO cells (1×10^8) and centrifuged. Homogenate buffer (10 ml, 10 mM NaHCO3, 5 mM EDTA, pH 7.5) was added to the pellets of the cells and, using Polytron Homogenizer, the mixture was homogenated. The supernatant obtained after centrifugation at 400×g for 15 min was further centrifuged at 100,000×g for 1 hr to give precipitate of the membrane fraction. The precipitate was suspended in 2 ml of an assay buffer [50 mM Tris-HCl (pH 7.5), 1 mM EDTA, 0.1% BSA (bovine serum albumin), 10 mM MgCl2, 100 mM NaCl, 1 μM GDP (guanosine 5′-diphosphate), 0.25 mM PMSF (phenylmethylsulfonyl fluoride), […] pepstatin, […] leupeptin, […] phosphoramidon] and centrifuged at 100,000×g for 1 hr. The membrane fraction recovered as precipitate was suspended again in 20 ml of an assay buffer, and after dispensing, preserved at −80° C. and used upon thawing each time when in use.
The antagonistic activity of the test compound was determined as follows. The SLC-1 expression CHO cell membrane fraction (171 μl) diluted with an assay buffer was dispensed to a polypropylene 96 well plate and 3×10^−10 M MCH (2 μl) diluted with DMSO solution, test compound solution (2 μl) diluted to various concentrations and [^35S]-Guanosine 5′-(γ-thio)triphosphate ([…] Daiichi Pure Chemicals Co., Ltd.) were respectively added (cell membrane final concentration: 20 μg/ml, [^35S]-Guanosine 5′-(γ-thio)triphosphate final concentration: 0.33 nM). The reaction mixture was reacted at 25° C. for 1 hr with stirring, suction filtered with a glass filter (GF-C) and washed 3 times with a wash solution (300 μl, 50 mM Tris-HCl buffer, pH 7.5). Liquid scintillator ([…]) was added to the glass filter and the residual radioactivity was determined by a liquid scintillation counter. Binding inhibition (%)=(radioactivity upon addition of test compound and MCH−radioactivity upon addition of DMSO solution)/(radioactivity upon addition of MCH−radioactivity upon addition of DMSO solution)×100
From the binding inhibition (%), IC50 of the test compound was calculated.

T1 sequence (Q99705 whole entry): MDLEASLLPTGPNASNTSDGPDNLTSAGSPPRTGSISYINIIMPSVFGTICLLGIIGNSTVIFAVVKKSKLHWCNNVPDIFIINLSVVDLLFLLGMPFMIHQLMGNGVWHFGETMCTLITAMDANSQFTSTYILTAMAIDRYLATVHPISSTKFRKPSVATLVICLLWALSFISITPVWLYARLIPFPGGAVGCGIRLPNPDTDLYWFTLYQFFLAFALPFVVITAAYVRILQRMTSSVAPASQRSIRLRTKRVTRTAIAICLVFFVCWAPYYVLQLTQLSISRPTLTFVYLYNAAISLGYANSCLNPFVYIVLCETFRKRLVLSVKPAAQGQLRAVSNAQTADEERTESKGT

With `O=c1c2sc(-c3ccc(Cl)cc3)cc2ncn1CCc1ccc(CN2CCCC2)cc1` [Example 1, 6-(4-chlorophenyl)-3-{2-[4-(pyrrolidin-1-ylmethyl)phenyl]ethyl}thieno[3,2-d]pyrimidin-4(3H)-one] the IC50 [1] was 0.3 nM and the melting point was 163 to 166 °C.

Compound `CC(c1ccc(CCn2cnc3cc(-c4ccc(Cl)cc4)sc3c2=O)cc1)N1CCCCC1` (stereo not drawn) [Example 2, 6-(4-chlorophenyl)-3-{2-[4-(1-piperidin-1-ylethyl)phenyl]ethyl}thieno[3,2-d]pyrimidin-4(3H)-one] has an IC50 [1] of 0.4 nM and a melting point of 175 to 179 °C.

`CNCc1ccc(CCn2cnc3cc(-c4ccc(Cl)cc4)sc3c2=O)cc1` [Example 4, 6-(4-chlorophenyl)-3-(2-{4-[(methylamino)methyl]phenyl}ethyl)thieno[3,2-d]pyrimidin-4(3H)-one dihydrochloride] gave an IC50 [1] of 0.4 nM.

`CC(=O)N(C)Cc1ccc(CCn2cnc3cc(-c4ccc(Cl)cc4)sc3c2=O)cc1` [Example 6, N-(4-{2-[6-(4-chlorophenyl)-4-oxothieno[3,2-d]pyrimidin-3(4H) -yl]ethyl}benzyl)-N-methylacetamide] gave an IC50 [1] of 4.8 nM and a melting point of 176 to 178 °C.

`CN(C)C(=S)N(C)Cc1ccc(CCn2cnc3cc(-c4ccc(Cl)cc4)sc3c2=O)cc1` [Example 9, N-(4-{2-[6-(4-chlorophenyl)-4-oxothieno[3,2-d]pyrimidin-3(4H) -yl]ethyl}benzyl)-N,N′,N′-trimethylthiourea] showed an IC50 [1] of 4.7 nM and a melting point of 156 to 158 °C.

For `O=C1CCCN1Cc1ccc(CCn2cnc3cc(-c4ccc(Cl)cc4)sc3c2=O)cc1` [Example 11, 6-(4-chlorophenyl)-3-(2-{4-[(2-oxopyrrolidin-1-yl)methyl]phenyl}ethyl)thieno[3,2-d]pyrimidin-4(3H)-one], the IC50 [1] was 3.2 nM and the melting point was 218 to 221 °C.

`O=c1c2sc(-c3ccc(Cl)cc3)cc2ncn1CCc1ccc(CN2CC[C@H](F)C2)cc1` [Example 18, 6-(4-chlorophenyl)-3-[2-(4-{[(3S)-3-fluoropyrrolidin-1-yl]methyl}phenyl)ethyl]thieno[3,2-d]pyrimidin-4(3H)-one] showed an IC50 [1] of 1.2 nM.

In the case of `CC(=O)N(C)N(C)c1ccc(CCn2cnc3cc(-c4ccc(Cl)cc4)sc3c2=O)cc1` [Example 22, N′-[4-[2-[6-(4-chlorophenyl)-4-oxothieno[3,2-d]pyrimidin-3(4H)-yl]ethyl]phenyl]-N,N′-dimethylacetohydrazide], the IC50 [1] is reported as 10 nM.

With `CN(CC(N)=O)Cc1ccc(CCn2cnc3cc(-c4ccc(Cl)cc4)sc3c2=O)cc1` [Example 32, N^2-(4-{2-[6-(4-chlorophenyl)-4-oxothieno[3,2-d]pyrimidin-3(4H) -yl]ethyl}benzyl)-N^2-methylglycinamide] the IC50 [1] was 5 nM and the melting point was 207 to 212 °C.
